# Patent US9376499B2, “PAR-1 activation by metalloproteinase-1 (MMP-1)” (Tufts Medical Center, Inc., priority 2009, dated 2016)
# Non-standard residues stand in square brackets, D forms with d. Residues, ends and D or L forms follow the SMILES beside them. No end group written: not given here. *: point of attachment. 4Abz = Nc1ccc(C(=O)O)cc1; NHOH = ON*
# Columns and labels:
# [1] = Carotid artery FeCl3 injury arterial thrombosis model; format: in vivo, guinea pig; details: for prolongation of the mean occlusion time: P1pal-7 alone 0.3 mg/kg, FN-439 alone 2.0 mg/kg i.v.
# From the text: To assess the efficacy on arterial thrombosis by blockade of thrombin, MMP-1, or PAR1, a standard carotid artery FeCl3 injury model was used in guinea pigs. FeCl3 causes denudation of the artery and exposure of type I collagen and other subendothelial matrix proteins. The effects of blocking thrombin with bivalirudin, MMP-1 with FN-439, and PAR1 with either the small molecule antagonist RWJ-56110 or the P1pal-7 pepducin on arterial thrombosis were then compared using a dopier probe.
# For these arterial thrombosis experiments, 10 min after i.v. administration of vehicle (−), bivalirudin, RWJ-56110, P1 pal-7 or FN-439 (n=4-5) through the jugular vein at the indicated concentrations, the right carotid arteries were injured for 20 min using a 24 mm^2 piece of Bio-Rad Trans-Blot paper soaked in 20% FeCl3. Arterial flow 5 mm distal to the site of injury was measured with a 0.5 V Doppler probe (Transonic Systems). An arterial occlusion was defined as a flow rate of <0.01 V for ≧5 min. Doppler measurements were terminated at the 30 min time point following injury (* designates p<0.05).
# [2] = tested on: MAPKAP-K2; assay: Collagen activation of phospho-MAPKAP-K2 in platelets (data not shown); format: cell-based, human
# [3] = Atherosclerotic lesion area in ApoE-deficient mice (en face Oil-Red-O); format: in vivo, mouse; details: high-fat diet 15 weeks, s.c. 6 days a week, FN-439 5 mg/kg, P1pal-7 10 mg/kg; for mean lesion area, abdominal section of the aorta: vehicle 8.9%; for mean lesion area, aortic section, % of the total area: vehicle 12.9%
# Protocol: Twenty five (25) 86.129P2-Apoe^fm1Unc/J mice, 7 weeks old, were separated into 3 groups and fed ad libitum with high-fat/high-cholesterol diet (21% fat, 0.21% cholesterol) (0120798, Research Diets) for 15 weeks. Group I included 8 mice (n=8) was used as a control group and received Vehicle (20% DMSO in 1×PBS). Group II included 8 mice (n=8) that were treated with MMP Inhibitor I FN-439 (Calbiochem) at a dose of 5 mg/kg. Lastly, group III included 9 mice (n=9) treated with 10 mg/kg of the P1pal-7 pepducin lipopeptide. […] P1pal-7 is a cell-penetrating pepducin lipopeptide based on the third intracellular loop (i3) of human PAR1 and acts as an antagonist of PAR1 signaling. All mice were injected subcutaneously with 100 μl of the corresponding treatment for 6 days a week. At the end of the treatment, and after a 4 hours fasting, the mice were anesthetized with ketamine/xylazine and pressure-fixed with 10% formalin. The heart and the aorta of each mouse were isolated, removed and fixed for 2 days in 10% formalin and adventitial fat was removed. The abdominal area of the aorta was cut and used for whole mount immunohistochemistry. The “aortic arch/thoracic” area and the rest of the “abdominal/iliac” area of the aorta were cut open and pinned on dissecting black wax and used for “en face” staining with Oil-Red-O.
# To study the extent of artherosderotic plaque formation, pinned aortas were first fixed in 10% formalin and kept in 1×PBS. The aorta of the mice were then subjected to “en face” staining with Oil-Red-O, which stains lipids red. Briefly, the PBS was drained from the samples and the stain solution was added for 45 min. The stain was drained and the samples were washed first with 70% Ethanol and then with water, in order to remove the background. Digital pictures of the stained aortas were taken and the MetaXpress software (Molecular Devices) was used to define and quantify the total aortic area as well as the lesion areas. The ratio of lesion area to the total aortic area was calculated for the “aortic arch/thoracic” and the “abdominal/iliac” area. The aorta of each mouse was isolated and separated into three sections. The abdominal section (before and after the renal arteries) was separated and used for whole mount immunohistochemistry. The remaining sections were the one from the aortic arch to the mesenteric artery (aortic) and the other from after the renal arteries to the iliac arteries (abdominal). These sections of the aorta were used for the “en face” staining and the estimation of the atherosclerotic lesion area.
# [4] = Angiogenesis in adventitia of abdominal aorta of ApoE-/- mice (CD31 whole mount immunostaining); format: in vivo, mouse; details: 15 weeks
# Protocol: Angiogenesis may promote the progression of atherosclerosis and contribute to plaque instability and rupture. […] Angiogenesis was therefore evaluated in the adventitia of aortas from apoE−/− mice fed a high fat diet for 15 weeks and treated with either the MMP-1 collagenase inhibitor, MMP Inh-1 (FN-439) or the PAR1 antagonist, P1pal-7. The mice were then anesthetized with Ketamine/Xylazine and pressure fixed with 10% formalin. The abdominal aorta was isolated, removed and fixed for 1 hour with 10% formalin and adventitial fat was removed. The abdominal aorta were then whole mount immunostained for CD31, a marker for endothelial cells and 3D projection images were constructed from multiple confocal sections using the following procedure. Briefly, the tissue was blocked for 1 hour with 5% goat serum in Tris buffered saline containing 0.3% Triton-X 100 (TBST) and incubated overnight at 4° C. with primary antibody diluted 1:1000 in TBST. After several washes with TBST, the tissue was incubated with fluorescently tagged secondary antibody diluted in TBST for 4 hours. The tissue was washed and post-fixed with 4% paraformaldehyde for 10 minutes. The aorta was then cut lengthwise and splayed open onto a microscope slide with the adventitial side up. The tissue was whole mounted with Vectashield mounting media and imaged using a Leica TCS SP2 confocal microscope […]. Confocal images were constructed into 3D projections of Z-stacks. Quantification of images was performed using NIH ImageJ. Antibodies used were: hamster anti-mouse PECAM-1 (Chemicon) and Cy3-anti-hamster (Jackson Immunolabs).
# [5] = tested on: platelets; assay: Platelet thrombus formation on collagen surface under arterial flow, heparin-anticoagulated whole blood; format: cell-based, human; details: heparin 10 U/mL; shear rate 1,000 s-1; FN-439 3 μM, RWJ-56110 1 μM, pepducins 3 μM, aspirin 1 mM
Molecule,prolongation of the mean occlusion time [1] [%],block of collagen-activation of phospho-MAPKAP-K2 [2],"mean lesion area, abdominal section of the aorta [3] [%]","mean lesion area, aortic section, % of the total area [3] [%]",amount of CD31-positive vessels [4],number of branch points per vessel area [4],number of vascular bundles in the adventitia of the aorta [4],attenuation of growth rate and size of platelet aggregate strings [5] [%],additional prolongation of arterial occlusion time in combination ([1]; 0.13 mg/kg P1pal-7 supplemented with 0.18 mg/kg bivalirudin)
CC(C)C[C@@H](NC(=O)[C@@H]1CCCN1C(=O)CNC(=O)c1ccc(N)cc1)C(=O)N[C@H](C)C(=O)NO [FN-439] (H-[4Abz]GP[dL][dA]-{NHOH}),90,blocked,4.1,10.7,significantly reduced,significantly inhibited,significantly reduced,~75,–
"P1pal-7: PAR1 i3 loop pepducin lipopeptide, KKSRALF (SEQ ID NO. 2), palmitate (also: palmitate, site not given here)",80,blocked,2.3,8.1,significantly reduced,significantly inhibited,significantly reduced,~75,no additional prolongation
